Data reported in patent US20120108557A1, “FLUOROQUINOLONE DERIVATIVES FOR OPHTHALMIC APPLICATIONS” (ALCON RESEARCH, LTD., priority 2008, published 2012).

Tests used:
in vitro = details: for Papp at 5 h, 100 μMole / MEAN LAG TIME: female, New Zealand Albino, rabbit; for MEAN LAG TIME: 100 μMole
Description: The procedure used is summarized below.
Female New Zealand Albino rabbits were sacrificed by first anaesthetizing with ketamine (30 mg/Kg) and xylazine (6 mg/Kg) followed by an injection of an overdose of […]* (sodium pentobarbital, 1 ml of a 26% solution) into the marginal ear vein. The intact eyes, along with the lids and conjunctival sacs were then enucleated and immediately stored in about 70 ml of fresh BSS PLUS® irrigation solution saturated with O2/CO2 (95:5).
To accomplish this, the exposed cornea of the enucleated eye was carefully placed on a corneal holder, which maintained the cornea curvature and held the eye in place. Various tissues of the eye were dissected leaving the cornea, a small ring of scleral tissue, and the palpebral conjunctiva. The conjunctival and scleral tissue served as a gasket and permitted the cornea to be suspended within the corneal ring in the center of the perfusion chamber. The chamber was jacketed to maintain the cornea and the perfusion solution at 35° C. The corneal holder and chamber were made from acrylic plastic at the University of Iowa, Iowa City, Iowa.
The mounted cornea was clamped between the two cylindrical compartments of the perfusion chamber and 7.5 mls of BSS PLUS® irrigating solution was placed in the receiving (endothelial) side of the chamber with stirring and bubbling of the O2/CO2 (95:5) mixture. Then, 7 mls of the fluoroquinolone dissolved in BSS PLUS® irrigating solution at a concentration of 100 μMole (this is approximately 4 mg/100 mL) was added to the donor (epithelial) side of the chamber also with stirring and bubbling of the O2/CO2 (95:5) mixture. The difference in volume ensured that the cornea would not buckle during the course of the experiment.
Samples (150 μL) were withdrawn from the receiving chamber every 30 minutes over a five hour period, and an equal volume of irrigating solution was immediately added to the receiving chamber to maintain a constant volume. The concentration of fluoroquinolones in the samples was determined using reverse-phase HPLC. […] Mixtures of acetonitrile and 31 mM phosphoric acid/sodium phosphate buffer at pH=3 were the mobile phase. The mobile phase (acetonitrile:phosphate buffer v/v) and UV detection wavelengths for each of the fluoroquinolones was determined beforehand. […] After each permeability experiment, the cornea was trimmed of excess scleral tissue and conjunctiva, weighed and dried overnight over phosphorus pentoxide in a vacuum desiccator. It was then reweighed in order to determine the hydration level. […] If the cornea is damaged in any way the hydration level rises. Data from corneas with hydration levels over 83% are discarded.
The rate of drug accumulation in the receiving (endothelial) chamber, and the apparent Permeability Coefficients (Papp) of the fluoroquinolones were then calculated as follows: […]

Pseudomonas aeruginosa = test: In vitro antimicrobial activity, agar dilution MIC; type: cell-based
Description: (§1) The activity of the compounds of the present invention was evaluated using an in vitro assay. Microorganisms were prepared from growth on agar media, in broth culture, or from thawed cryopreserved cultures. Fungal cultures were filtered to remove mycelial elements.
(§2) Using Mueller Hinton II Broth, 0.9% saline or other appropriate media, a suspension of each culture was prepared and adjusted to a turbidity equivalent to that of a 0.5 McFarland Standard. (Cultures adjusted to the 0.5 McFarland Standard generally contain approximately 1.0×10^8 CFU/mL). The adjusted suspension for each culture was diluted 1:10 in the appropriate media so that the inoculum concentration approximates 1.0×10^7 CFU/mL.
(§3) The antimicrobial agent to be tested was weighed and diluted with a volume of sterile distilled water calculated to yield the necessary starting concentration. Serial 1:2 dilutions of the antimicrobial agent in sterile distilled water were prepared (approximately 10-12 test concentrations comprise a reasonable experimental range). A known amount of each antimicrobial dilution was combined with an aliquot of agar medium calculated to yield the desired final antimicrobial test concentration and dispensed onto plates.
(§4) The amount of antimicrobial agent to be weighed was determined using the following equation: […]
(§5) Antimicrobial stock solutions were prepared at concentrations 5-10 times the highest concentration to be tested (routinely 1024 μg/mL). […] The stock solution was diluted to appropriate concentration using sterile water to form a working solution. The working solution was diluted two-fold, in sterile water, until the desired concentration is obtained.
(§6) Mueller Hinton II agar was prepared as described by the manufacturer. Mueller Hinton II agar may be supplemented with 5% defibrinated sheep blood for testing streptococci. Agar was added to the serially diluted antimicrobial solution in each container. The solutions were mixed thoroughly and poured into petri dishes (about 25 mL/plate). The pH of the agar at 25° C. should be between 7.2 and 7.4.
(§7) At least one inocula control plate was inoculated (agar medium without antimicrobial agent) from each seed plate before inoculating test plates. Test plates were inoculated starting at the lowest concentration and proceeding to the highest concentration. After all test plates were inoculated, an additional control plate (agar medium without antimicrobial agent) was inoculated. The plates were incubated in a non-CO2 incubator (or CO2 incubator depending on growth requirements); 18-24 hours at 32-35° C. was sufficient for most organisms.
(§8) All inoculation points on the agar surface were examined for the presence of growth as compared to the inoculum control plates. The results were summarized and use to determine Minimal Inhibitory Concentrations (MICs): The MIC is the lowest concentration of the antimicrobial agent which prevents visible growth of the organism (negative score).

[1] = system: Staphylococcus haemolyticus; test: In vitro antimicrobial activity, agar dilution MIC; type: cell-based
Description: as §1, §2, §3, §4, §5, §6, §7, §8

[2] = system: Stenotrophomonas maltophilia; test: In vitro antimicrobial activity, agar dilution MIC; type: cell-based
Description: as §1, §2, §3, §4, §5, §6, §7, §8

[3] = system: Corynebacterium amycolatum; test: In vitro antimicrobial activity, agar dilution MIC; type: cell-based
Description: as §1, §2, §3, §4, §5, §6, §7, §8

Enterobacter hormaechei = test: In vitro antimicrobial activity, agar dilution MIC; type: cell-based
Description: as §1, §2, §3, §4, §5, §6, §7, §8

Acinetobacter junii = test: In vitro antimicrobial activity, agar dilution MIC; type: cell-based
Description: as §1, §2, §3, §4, §5, §6, §7, §8

MRSE = test: In vitro antimicrobial activity, agar dilution MIC; type: cell-based
Description: as §1, §2, §3, §4, §5, §6, §7, §8

Streptococcus mitis = test: In vitro antimicrobial activity, agar dilution MIC; type: cell-based
Description: as §1, §2, §3, §4, §5, §6, §7, §8

Streptococcus pneumoniae = test: In vitro antimicrobial activity, agar dilution MIC; type: cell-based
Description: as §1, §2, §3, §4, §5, §6, §7, §8

Escherichia coli = test: In vitro antimicrobial activity, agar dilution MIC; type: cell-based
Description: as §1, §2, §3, §4, §5, §6, §7, §8

Staphylococcus aureus = test: In vitro antimicrobial activity, agar dilution MIC; type: cell-based
Description: as §1, §2, §3, §4, §5, §6, §7, §8

[4] = test organism 37, Pseudomonas aeruginosa
[5] = test organism 38, Pseudomonas aeruginosa
[6] = test organism 12, Staphylococcus haemolyticus
[7] = test organism 13, Staphylococcus haemolyticus
[8] = test organism 14, Staphylococcus haemolyticus
[9] = test organism 41, Stenotrophomonas maltophilia
[10] = test organism 42, Stenotrophomonas maltophilia
[11] = test organism 24, Corynebacterium amycolatum
[12] = test organism 25, Corynebacterium amycolatum
[13] = test organism 30, Enterobacter hormaechei
[14] = test organism 31, Enterobacter hormaechei
[15] = test organism 27, Acinetobacter junii
[16] = test organism 28, Acinetobacter junii
[17] = test organism 29, Acinetobacter junii
[18] = test organism 21, Streptococcus mitis
[19] = test organism 22, Streptococcus mitis
[20] = test organism 23, Streptococcus mitis
[21] = test organism 19, Streptococcus pneumoniae
[22] = test organism 20, Streptococcus pneumoniae
[23] = test organism 32, Escherichia coli
[24] = test organism 33, Escherichia coli
[25] = test organism 34, Escherichia coli
[26] = test organism 1, Staphylococcus aureus
[27] = test organism 2, Staphylococcus aureus

Structure (SMILES) | Papp at 5 h, 100 μMole (in vitro) [×10⁻⁶ cm/s] | MEAN LAG TIME (in vitro) [min] | Minimal Inhibitory Concentration (MIC) (Pseudomonas aeruginosa; [4]) | Minimal Inhibitory Concentration (MIC) (Pseudomonas aeruginosa; [5]) | Minimal Inhibitory Concentration (MIC) [1, 6] | Minimal Inhibitory Concentration (MIC) [1, 7] | Minimal Inhibitory Concentration (MIC) [1, 8] | Minimal Inhibitory Concentration (MIC) [2, 9] | Minimal Inhibitory Concentration (MIC) [2, 10] | Minimal Inhibitory Concentration (MIC) [3, 11] | Minimal Inhibitory Concentration (MIC) [3, 12] | Minimal Inhibitory Concentration (MIC) (Enterobacter hormaechei; [14]) | Minimal Inhibitory Concentration (MIC) (Acinetobacter junii; [15]) | Minimal Inhibitory Concentration (MIC) (Acinetobacter junii; [16]) | Minimal Inhibitory Concentration (MIC) (Acinetobacter junii; [17]) | Minimal Inhibitory Concentration (MIC) (MRSE; test organism 9, MRSE) | Minimal Inhibitory Concentration (MIC) (MRSE; test organism 10, MRSE) | Minimal Inhibitory Concentration (MIC) (MRSE; test organism 11, MRSE) | Minimal Inhibitory Concentration (MIC) (Streptococcus mitis; [18]) | Minimal Inhibitory Concentration (MIC) (Streptococcus mitis; [19]) | further results
Nc1c(F)c(N2CC3CCCNC3C2)c(F)c2c1c(=O)c(C(=O)O)cn2C1CC1 (racemic) [Compound 3 (racemic)] | 16.6 | 38 | >4 | 2 | 0.125 | 1 | >4 | 4 | ≦0.03 | 0.06 | >4 | 4 | ≦0.25 | 0.125 | >4 | >2 | >2 | >4 | 0.5 | 0.06 | Minimal Inhibitory Concentration (MIC) (Enterobacter hormaechei; [13]): 0.5; Minimal Inhibitory Concentration (MIC) (Streptococcus mitis; [20]): 1; Minimal Inhibitory Concentration (MIC) (Streptococcus pneumoniae; [21]): ≦0.03; Minimal Inhibitory Concentration (MIC) (Streptococcus pneumoniae; [22]): 0.5; Minimal Inhibitory Concentration (MIC) (Escherichia coli; [23]): 0.06; Minimal Inhibitory Concentration (MIC) (Escherichia coli; [24]): ≦0.25; Minimal Inhibitory Concentration (MIC) (Escherichia coli; [25]): >4; Minimal Inhibitory Concentration (MIC) (Staphylococcus aureus; [26]): ≦0.03; Minimal Inhibitory Concentration (MIC) (Staphylococcus aureus; [27]): 0.5
CN1CCCC2CN(c3c(F)cc4c(=O)c(C(=O)O)cn(C5CC5)c4c3F)CC21 (stereo not shown) [Compound 1] | 31.1 | 12 | >4 | 2 | 0.25 | 2 | >4 | >4 | 0.25 | 0.06 | >4 | 4 | ≦0.25 | ≦0.03 | 2 | >2 | >2 | >4 | 0.5 | 0.25 | permeability and lag characteristics among the compounds studied (in words) (in vitro): best permeability and lag characteristics of the compounds studied; Minimal Inhibitory Concentration (MIC) (Streptococcus mitis; [20]): 2; Minimal Inhibitory Concentration (MIC) (Streptococcus pneumoniae; [21]): 0.125; Minimal Inhibitory Concentration (MIC) (Streptococcus pneumoniae; [22]): 0.5; Minimal Inhibitory Concentration (MIC) (Escherichia coli; [23]): 0.06; Minimal Inhibitory Concentration (MIC) (Escherichia coli; [24]): ≦0.25; Minimal Inhibitory Concentration (MIC) (Escherichia coli; [25]): >4; Minimal Inhibitory Concentration (MIC) (Staphylococcus aureus; [26]): 0.06; Minimal Inhibitory Concentration (MIC) (Staphylococcus aureus; [27]): ≦0.25
CN1CCCC2CN(c3cc4c(cc3F)c(=O)c(C(=O)O)cn4C3CC3)CC21 (stereo not shown) [Compound 2] | 20.5 | 27 | >4 | >4 | 1 | >4 | >4 | >4 | 2 | ≦0.03 | >4 | >4 | ≦0.25 | 0.25 | >4 | >2 | >2 | >4 | ≦0.25 | 0.5 | permeability and lag characteristics among the compounds studied (in words) (in vitro): best permeability and lag characteristics of the compounds studied; Minimal Inhibitory Concentration (MIC) (Enterobacter hormaechei; [13]): 0.25; Minimal Inhibitory Concentration (MIC) (Streptococcus mitis; [20]): >4; Minimal Inhibitory Concentration (MIC) (Streptococcus pneumoniae; [21]): 0.5; Minimal Inhibitory Concentration (MIC) (Streptococcus pneumoniae; [22]): ≦0.25; Minimal Inhibitory Concentration (MIC) (Escherichia coli; [23]): 0.25; Minimal Inhibitory Concentration (MIC) (Escherichia coli; [24]): ≦0.25; Minimal Inhibitory Concentration (MIC) (Escherichia coli; [25]): >4; Minimal Inhibitory Concentration (MIC) (Staphylococcus aureus; [26]): 0.125; Minimal Inhibitory Concentration (MIC) (Staphylococcus aureus; [27]): ≦0.25
